In patent US6541467B1, “Thrombin inhibitors having a lactam at P3” (Corvas International, Inc., priority 2000, dated 2003):

Key:
Assay type in all cases: biochemical
human α-thrombin = target: T1, human α-thrombin (Homo sapiens, UniProt P00734); assay: Thrombin (fIIa) chromogenic enzyme assay; settings: for IC50: 0 min
T1 construct: Purified human α-thrombin; purchased Enzyme Research Laboratories, Inc
Method: For screening compounds using these assays, the compounds of the present invention are dissolved in buffer to give solutions containing concentrations such that assay concentrations range from 0 to 100 micromolar. In the assays for thrombin, plasmin, t-PA, aPC, chymotrypsin, and trypsin, a chromogenic synthetic substrate is added to a solution containing test compound and the enzyme of interest and the residual catalytic activity of that enzyme is determined spectrophometrically. The IC50 of a compound of the present invention is determined from the rate of substrate turnover caused by the specific enzyme being measured. IC50 is the concentration of test compound which gives 50% inhibition of the rate of substrate turnover. Likewise, the Ki of a compound of the present invention is determined from the rate of substrate turnover caused by the specific enzyme being measured at various […] concentrations. Example A provides exemplars of in vitro assays used to select the compounds of the present invention.
(§1) The ability of compounds of the present invention to act as a selective inhibitor of thrombin activity was assessed by determining the concentration of test-compound which inhibited the activity of this enzyme by 50%, (IC50), and comparing this value to that determined for all or some of the following related serine proteases: recombinant tissue plasminogen activator (rt-PA), plasmin, activated protein C, chymotrypsin, factor Xa and trypsin.
(§2) The buffer used for all assays was HBSA (10 mM HEPES, pH 7.5, 150 mM sodium chloride, 0.1% bovine serum albumin).
The assay for IC50 determinations was conducted by combining in appropriate wells of a Corning microtiter plate, 50 microliters of HBSA, 50 microliters of the test compound at a specified concentration (covering a broad concentration range) diluted in HBSA (or HBSA alone for V0 (uninhibited velocity) measurement), and 50 microliters of the enzyme diluted in HBSA. […] The initial velocity of chromogenic substrate hydrolysis was measured by the change in absorbance at 405 nm using a Thermo Max® Kinetic Microplate Reader over a 5 minute period in which less than 5% of the added substrate was utilized. The concentration of added inhibitor which caused a 50% decrease in the initial rate of hydrolysis was defined as the IC50 value.
Enzyme activity was determined using the chromogenic substrate, Pefachrome t-PA (CH3SO2-D-hexahydrotyrosine-glycyl-L-Arginine-p-nitroaniline, obtained from Pentapharm Ltd.). The substrate was reconstituted in deionized water prior to use. Purified human α-thrombin was obtained from Enzyme Research Laboratories, Inc. The buffer used for all assays was HBSA (10 mM HEPES, pH 7.5, 150 mM sodium chloride, 0.1% bovine serum albumin).
The initial velocity of Pefachrome t-PA hydrolysis was measured by the change in absorbance at 405 nm using a Thermo Max® Kinetic Microplate Reader over a 5 minute period in which less than 5% of the added substrate was utilized. The concentration of:added inhibitor which caused a 50% decrease in the initial rate of hydrolysis was defined as the IC50 value.

Factor Xa = target: T2, Factor Xa (Homo sapiens, UniProt P00742); assay: Factor Xa chromogenic enzyme assay; settings: read-out: fXa IC50
T2 construct: purchased Enzyme Research Laboratories, Inc. (South Bend, Ind.)
Method: as §1, §2
(§3) The assay for IC50 determinations was conducted by combining in appropriate wells of a Corning microtiter plate, 50 microliters of HBSA, 50 microliters of the test compound at a specified concentration (covering a broad concentration range) diluted in HBSA (or HBSA alone for V0 (uninhibited velocity) measurement), and 50 microliters of the enzyme diluted in HBSA. Following a 30 minute incubation at ambient temperature, 50 microliters of the substrate at the concentrations specified below were added to the wells, yielding a final total volume of 200 microliters. The initial velocity of chromogenic substrate hydrolysis was measured by the change in absorbance at 405 nm using a Thermo Max® Kinetic Microplate Reader over a 5 minute period in which less than 5% of the added substrate was utilized. The concentration of added inhibitor which caused a 50% decrease in the initial rate of hydrolysis was defined as the IC50 value.
Factor Xa catalytic activity was determined using the chromogenic substrate S-2765 (N-benzyloxycarbonyl-D-arginine-L-glycine-L-arginine-p-nitroaniline), obtained from DiaPharma Group (Franklin, Ohio). All substrates were reconstituted in deionized water prior to use. […] Purified human Factor X was obtained from Enzyme Research Laboratories, Inc. (South Bend, Ind.) and Factor Xa (FXa) was activated and prepared from it as described [Bock, P. E., Craig, P. A., Olson, S. T., and Singh, P. Arch. Biochem. Biophys. 273:375-388 (1989)]. The enzyme was diluted into HBSA prior to assay in which the final concentration was 0.25 nM.

[1] = target: T3, bovine pancreatic trypsin (Bos taurus, UniProt P00760); assay: Trypsin chromogenic enzyme assay
T3 sequence (P00760 24-246): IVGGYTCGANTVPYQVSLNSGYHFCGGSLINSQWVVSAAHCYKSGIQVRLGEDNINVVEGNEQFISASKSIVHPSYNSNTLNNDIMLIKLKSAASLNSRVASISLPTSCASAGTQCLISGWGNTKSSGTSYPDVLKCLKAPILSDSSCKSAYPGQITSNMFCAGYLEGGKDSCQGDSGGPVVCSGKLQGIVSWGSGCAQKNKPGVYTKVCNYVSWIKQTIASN
Method: as §1, §2, §3
Trypsin catalytic activity was determined using the chromogenic substrate, S-2222 (benzoyl-L-isoleucine-L-glutamic acid-[gamma-methyl ester]-L-arginine-p-nitroanilide), which was obtained from DiaPharma Group. […] Purified (3×-crystallized; TRL3) bovine pancreatic trypsin was obtained from Worthington Biochemical Corp. The enzyme was reconstituted in deionized water and diluted into HBSA prior to assay in which the final concentration was 0.5 nM.

human plasmin = target: T4, human plasmin (Homo sapiens, UniProt P00747); assay: Plasmin chromogenic enzyme assay
T4 construct: Purified human plasmin; purchased Enzyme Research Laboratories, Inc
Method: as §1, §2, §3
Plasmin catalytic activity was determined using the chromogenic substrate, S-2366 [L-pyroglutamyl-L-prolyl-L-arginine-p-nitroaniline hydrochloride], which was obtained from DiaPharma group. The substrate was made up in deionized water followed by dilution in HBSA prior to the assay in which the final concentration was 300 micromolar (about 2:.5-times Km). Purified human plasmin was obtained from Enzyme Research Laboratories, Inc. The enzyme was diluted into HBSA prior to assay in which the final concentration was 1.0 nM.

T4 sequence (P00747 581-810 limits assumed): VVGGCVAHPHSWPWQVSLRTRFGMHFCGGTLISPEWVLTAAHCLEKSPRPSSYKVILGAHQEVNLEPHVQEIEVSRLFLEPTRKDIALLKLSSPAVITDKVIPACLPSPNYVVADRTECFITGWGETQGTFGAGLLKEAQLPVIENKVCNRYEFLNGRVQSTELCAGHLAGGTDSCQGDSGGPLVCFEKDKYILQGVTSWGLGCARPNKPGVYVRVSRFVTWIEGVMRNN
T4 sequence (P00747 97-580 partner limits assumed): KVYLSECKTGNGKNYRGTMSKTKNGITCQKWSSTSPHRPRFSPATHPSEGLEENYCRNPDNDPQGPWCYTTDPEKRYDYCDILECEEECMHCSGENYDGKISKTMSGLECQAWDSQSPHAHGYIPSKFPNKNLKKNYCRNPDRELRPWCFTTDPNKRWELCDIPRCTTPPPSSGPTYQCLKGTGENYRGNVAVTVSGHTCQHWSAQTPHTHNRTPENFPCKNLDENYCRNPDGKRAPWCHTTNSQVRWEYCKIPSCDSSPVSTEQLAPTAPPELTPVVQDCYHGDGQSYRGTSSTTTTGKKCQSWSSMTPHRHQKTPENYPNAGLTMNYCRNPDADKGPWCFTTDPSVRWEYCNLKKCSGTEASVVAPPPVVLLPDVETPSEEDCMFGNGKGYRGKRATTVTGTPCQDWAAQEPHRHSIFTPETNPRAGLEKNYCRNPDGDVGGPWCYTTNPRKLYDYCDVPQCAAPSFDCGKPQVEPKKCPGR
T2 sequence (P00742 235-488 limits assumed): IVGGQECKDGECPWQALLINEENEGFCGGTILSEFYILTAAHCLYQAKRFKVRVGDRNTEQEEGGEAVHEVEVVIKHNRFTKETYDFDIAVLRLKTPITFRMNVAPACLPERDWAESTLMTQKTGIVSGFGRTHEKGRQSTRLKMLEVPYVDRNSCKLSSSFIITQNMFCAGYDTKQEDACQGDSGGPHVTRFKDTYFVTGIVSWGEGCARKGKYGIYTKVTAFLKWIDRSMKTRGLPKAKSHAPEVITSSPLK
T2 sequence (P00742 41-179 partner limits assumed): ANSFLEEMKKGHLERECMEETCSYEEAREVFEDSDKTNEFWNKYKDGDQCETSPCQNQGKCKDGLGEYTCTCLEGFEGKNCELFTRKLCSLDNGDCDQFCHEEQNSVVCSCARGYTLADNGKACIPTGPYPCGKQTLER

Ki (human α-thrombin) [µM]	IC50 (human α-thrombin) [µM]	IC50 (Factor Xa) [µM]	IC50 [1] [µM]	IC50 (human plasmin) [µM]	SMILES
0.3 to 2.5	≥ 2.5	≥ 2.5	≥ 2.5	≥ 2.5	N/C(=N\O)c1ccc(CNC(=O)CN2C(=O)[C@@H](NS(=O)(=O)c3ccc4c(c3)CCO4)CCc3ccccc32)cc1 [Example 54, 3-(S)-(2,3-Dihydrobenzo[b]furanyl-5-sulfonyl)amino-1-(4-hydroxyamidinylbenzylmethylenecarboxamido)-4,5-dihydrobenzo[f]azepin-2-one]
≤ 0.1	0.1 to 0.3	≥ 2.5	≥ 2.5	≥ 2.5	N=C(N)N1CCC(CNC(=O)CN2CCCC[C@H](NS(=O)(=O)c3ccc4c(c3)CCO4)C2=O)CC1 [Example 36, 3-(S)-(2,3-Dihydrobenzo[b]furanyl-5-sulfonyl)amino-1-(1-amidino-4-methylenecarboxamidomethylperidinyl)-4,5,6,7-tetrahydroazepin-2-one]
≤ 0.1	0.1 to 0.3	≥ 2.5	0.1 to 0.3	≥ 2.5	N=C(N)c1ccc(CNC(=O)CN2CCCC[C@H](NS(=O)(=O)c3ccc4c(c3)CCO4)C2=O)c(F)c1 [Example 39]
≤ 0.1	0.3 to 2.5	≥ 2.5	≥ 2.5	≥ 2.5	N=C(N)N1CCC(CNC(=O)CN2C(=O)[C@@H](NS(=O)(=O)c3ccc4c(c3)CCO4)CCc3ccccc32)CC1 [Example 56, 3-(S)-(2,3-Dihydrobenzo[b]furanyl-5-sulfonyl)amino-1-(1-amidino-4-methylenecarboxamidomethylpiperidyl)-4,5-dihydrobenzo[f]azepin-2-one]
